18 molecules from ChEMBL document CHEMBL1201862, “PubChem BioAssay data set” (2004) can be followed below.

In one assay the target is T1, Bcl-2-like protein 10 (Homo sapiens, UniProt Q9HD36).
T1 sequence (Q9HD36 whole entry): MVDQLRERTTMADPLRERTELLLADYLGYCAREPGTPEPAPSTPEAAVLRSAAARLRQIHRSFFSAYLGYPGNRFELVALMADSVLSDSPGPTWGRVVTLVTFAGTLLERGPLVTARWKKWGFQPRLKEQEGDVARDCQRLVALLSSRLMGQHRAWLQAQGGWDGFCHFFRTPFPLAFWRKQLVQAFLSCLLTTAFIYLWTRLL
Briefly: Bcl-B/TR3 peptide binding disruption – biochemical, fluorescence polarization, FITC-TR3 peptide, selectivity assay for Bfl-1 inhibitor project, primary screen (AID 748).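 Also: fluorescence polarization from a fluorescein-labelled TR3 peptide binding purified Bcl-B.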

The target of assay [1] is Acyl-homoserine lactone acylase PvdQ (Pseudomonas aeruginosa (strain LESB58), UniProt Q9I194). Briefly: PvdQ acylase enzyme activity blockers – biochemical, fluorescence, plate reader and imaging, cherry-picks, dose response (AID 493231).
Assay [2] can be described thus: A cytotoxicity screen of small molecule inhibitors of the PhoP region in Salmonella typhi identified in the primary screen. [Related pubchem assays: 1850, 1864, 1985 ]. The format is functional.
The target in assay [3] is T2, Short transient receptor potential channel 4 (Mus musculus, UniProt Q9QUQ5).
T2 sequence (Q9QUQ5 whole entry): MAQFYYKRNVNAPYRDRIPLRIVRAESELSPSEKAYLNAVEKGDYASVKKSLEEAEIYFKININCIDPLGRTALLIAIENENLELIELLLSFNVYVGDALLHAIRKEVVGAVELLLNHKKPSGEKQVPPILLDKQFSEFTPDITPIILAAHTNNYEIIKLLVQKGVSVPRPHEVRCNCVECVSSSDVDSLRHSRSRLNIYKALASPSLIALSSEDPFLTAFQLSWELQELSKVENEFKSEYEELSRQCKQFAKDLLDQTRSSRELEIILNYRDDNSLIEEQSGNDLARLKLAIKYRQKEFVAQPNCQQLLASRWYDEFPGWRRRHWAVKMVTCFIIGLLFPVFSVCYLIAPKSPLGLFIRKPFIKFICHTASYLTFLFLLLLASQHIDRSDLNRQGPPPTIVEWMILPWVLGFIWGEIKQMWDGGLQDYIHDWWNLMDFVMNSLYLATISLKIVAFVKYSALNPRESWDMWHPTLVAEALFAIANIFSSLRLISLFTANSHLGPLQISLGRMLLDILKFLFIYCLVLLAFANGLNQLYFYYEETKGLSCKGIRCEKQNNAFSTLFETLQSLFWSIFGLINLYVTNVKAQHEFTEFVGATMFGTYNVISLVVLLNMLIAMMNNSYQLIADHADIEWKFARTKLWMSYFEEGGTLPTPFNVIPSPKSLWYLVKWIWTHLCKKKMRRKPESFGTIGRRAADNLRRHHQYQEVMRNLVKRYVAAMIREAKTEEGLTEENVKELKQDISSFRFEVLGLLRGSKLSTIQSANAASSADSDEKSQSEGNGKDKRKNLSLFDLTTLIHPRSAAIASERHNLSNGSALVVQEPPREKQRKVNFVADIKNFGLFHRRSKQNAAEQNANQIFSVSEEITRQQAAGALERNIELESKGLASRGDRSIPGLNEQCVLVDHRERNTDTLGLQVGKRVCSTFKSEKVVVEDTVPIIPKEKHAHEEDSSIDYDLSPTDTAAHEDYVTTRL
Briefly: block of DAMGO-driven TRPC4 calcium entry – cell-based, HEK293 TRPC4/mu-opioid, Fluo-4 calcium, dose response (AID 434942).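 Also: potency of inhibitors blocking the TRPC4 calcium response.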 The format is functional.

For a further assay, the target named is Cytochrome P450 3A4 (Homo sapiens, UniProt P08684). As to conditions: Potency.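 Also: confirmatory qHTS run detecting inhibitors and substrates of CYP3A4.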
The target of the next assay is Cytochrome P450 2C9 (Homo sapiens, UniProt P11712). As to conditions: Potency.
Assay [4] in a line: viability of uninfected HEp-2 cells – cell-based, HTS, cytotoxicity control for RSV inhibitor project, dose response (AID 2410). As to conditions: human respiratory syncytial virus. The format is functional.
For a further assay, the target named is Tumor necrosis factor (Homo sapiens, UniProt P01375). Kind of assay: analog potency on TNFa NF-kB signaling – cell-based, revised, SAR follow-up (AID 2337). The format is functional.
In assay [5] the target is T3, Nucleotide-binding oligomerization domain-containing protein 1 (Homo sapiens, UniProt Q9Y239).
T3 sequence (Q9Y239 whole entry): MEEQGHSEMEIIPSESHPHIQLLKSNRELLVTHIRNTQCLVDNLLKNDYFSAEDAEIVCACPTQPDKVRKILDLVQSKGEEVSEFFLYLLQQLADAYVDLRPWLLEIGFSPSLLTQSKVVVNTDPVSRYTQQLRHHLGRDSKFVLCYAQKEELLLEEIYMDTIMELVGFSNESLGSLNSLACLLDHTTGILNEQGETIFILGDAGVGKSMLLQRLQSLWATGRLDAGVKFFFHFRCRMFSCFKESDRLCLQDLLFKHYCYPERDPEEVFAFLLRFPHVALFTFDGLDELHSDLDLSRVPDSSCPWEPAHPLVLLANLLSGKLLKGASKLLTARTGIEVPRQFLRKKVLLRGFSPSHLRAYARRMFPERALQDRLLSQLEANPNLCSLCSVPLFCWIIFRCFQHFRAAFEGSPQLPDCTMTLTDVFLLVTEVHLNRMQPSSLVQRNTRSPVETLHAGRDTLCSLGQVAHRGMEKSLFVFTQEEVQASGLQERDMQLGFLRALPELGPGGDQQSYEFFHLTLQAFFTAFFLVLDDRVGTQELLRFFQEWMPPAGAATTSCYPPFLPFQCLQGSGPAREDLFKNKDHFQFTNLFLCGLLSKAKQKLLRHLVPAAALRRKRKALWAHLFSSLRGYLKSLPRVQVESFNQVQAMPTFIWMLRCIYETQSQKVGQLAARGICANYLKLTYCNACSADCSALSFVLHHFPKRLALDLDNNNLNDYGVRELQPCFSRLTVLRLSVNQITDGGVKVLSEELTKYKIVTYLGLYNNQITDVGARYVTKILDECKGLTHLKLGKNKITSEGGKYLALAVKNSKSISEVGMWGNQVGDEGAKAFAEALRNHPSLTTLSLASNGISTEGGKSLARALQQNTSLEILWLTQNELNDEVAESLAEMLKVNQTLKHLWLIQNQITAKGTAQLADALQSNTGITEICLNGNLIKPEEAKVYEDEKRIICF
Briefly: blockers of NOD1 pathway activity – revised, SAR follow-up (AID 2333). The format is functional.

The target in assay [6] is Nucleotide-binding oligomerization domain-containing protein 2 (Homo sapiens, UniProt Q9HC29). Kind of assay: PubChem AID 2334. The format is functional.
In a further assay the test system is HEK293. Briefly: cells. As to conditions: Homo sapiens.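 Also: cells exposed to compound for 14 hours overnight before viability readout.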
The target in a further assay is T4, Estrogen receptor (Homo sapiens, UniProt P03372).
T4 sequence (P03372 whole entry): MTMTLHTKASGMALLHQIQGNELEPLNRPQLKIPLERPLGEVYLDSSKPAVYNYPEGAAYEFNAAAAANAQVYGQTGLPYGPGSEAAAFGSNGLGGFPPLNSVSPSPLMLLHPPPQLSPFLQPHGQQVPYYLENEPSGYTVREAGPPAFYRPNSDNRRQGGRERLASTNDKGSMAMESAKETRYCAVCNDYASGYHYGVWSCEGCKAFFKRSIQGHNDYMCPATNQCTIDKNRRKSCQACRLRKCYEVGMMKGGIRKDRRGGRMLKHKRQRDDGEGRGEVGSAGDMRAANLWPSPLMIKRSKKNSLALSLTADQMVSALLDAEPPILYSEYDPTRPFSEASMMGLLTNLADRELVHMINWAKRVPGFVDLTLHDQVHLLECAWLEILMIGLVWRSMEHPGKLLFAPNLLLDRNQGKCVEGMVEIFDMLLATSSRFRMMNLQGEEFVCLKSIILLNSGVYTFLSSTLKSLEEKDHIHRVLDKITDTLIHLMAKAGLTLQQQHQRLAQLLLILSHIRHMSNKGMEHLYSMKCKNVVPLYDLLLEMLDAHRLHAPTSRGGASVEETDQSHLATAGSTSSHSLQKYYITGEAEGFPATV
Briefly: ERα coactivator recruitment enhancers – biochemical, TR-FRET, ERα LBD, dose response (AID 737).

Assay [7] addresses Eukaryotic translation initiation factor 4E (Mus musculus, UniProt P63073). Briefly: blockers of eIF4G binding by eIF4E – biochemical, TR-FRET, dose response (AID 855).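 Also: potency for disrupting eIF4E binding to eIF4GI seen as loss of FRET.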 The format is functional. (In general: In TR-FRET formats the signal depends on donor and acceptor labels being close together.)
For a further assay, the target named is T5, Cytochrome P450 1A2 (Homo sapiens, UniProt P05177).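 Also: PubChem cytochrome P450 panel assay, CYP1A2 panel member.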
T5 sequence (P05177 whole entry): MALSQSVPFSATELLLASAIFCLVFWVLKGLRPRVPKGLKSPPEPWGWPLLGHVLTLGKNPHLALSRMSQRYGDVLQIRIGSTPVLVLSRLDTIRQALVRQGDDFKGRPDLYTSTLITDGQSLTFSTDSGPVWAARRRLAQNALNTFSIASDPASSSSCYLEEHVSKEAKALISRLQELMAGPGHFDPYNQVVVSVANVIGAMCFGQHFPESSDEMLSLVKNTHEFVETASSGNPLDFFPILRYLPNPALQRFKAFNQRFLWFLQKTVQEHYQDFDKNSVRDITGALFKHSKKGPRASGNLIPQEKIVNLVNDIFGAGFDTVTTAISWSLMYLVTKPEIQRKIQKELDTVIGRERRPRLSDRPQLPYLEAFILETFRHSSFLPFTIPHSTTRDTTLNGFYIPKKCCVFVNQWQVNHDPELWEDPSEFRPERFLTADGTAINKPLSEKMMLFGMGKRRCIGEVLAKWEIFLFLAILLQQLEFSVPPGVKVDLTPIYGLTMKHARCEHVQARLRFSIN

Assay [8] in a line: luciferase reporter signal suppression in cells – H4 neuroglioma cells, luminescence, dose response (AID 1990). The format is functional, cell-based.
The nature of assay [9]: Luminescence Cell-Based Dose Response HTS to Identify Inhibitors of 5'UTR Stem-Loop Driven Prion Protein mRNA Translation in H4 Neuroglioblastoma Cells. [Related pubchem assays: 1827 (Project Summary), 1813 (Primary HTS)]. The format is functional.
Assay [10] in a line: alpha-synuclein stem-loop luciferase translation blockers – H4 neuroglioma cells, luminescence, confirmation (AID 1988). The format is functional, cell-based.
Assay [11] addresses DNA (cytosine-5)-methyltransferase 1 (Homo sapiens, UniProt P26358). Kind of assay: inhibition of DNA methylation by DNMT1 – biochemical, fluorescent molecular beacon, confirmation (AID 602386). The format is functional.
In a further assay the test system is HeLa. Kind of assay: viability loss in HeLa cells – cell-based, 24 h, cherry-picked samples, cytotoxicity control, dose response (AID 504726).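 Also: potency for cytotoxicity as loss of luminescence signal.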 As to conditions: Homo sapiens. The format is functional.
Assay [12] in a line: mitochondrial function rescue without frataxin homolog – Friedreich's ataxia, plus single-dose screen, dose response (AID 1465).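 Also: yeast depleted of Yfh1p frataxin homolog grown on glycerol needing respiration; WST-1 tetrazolium dye reduction as measure of cellular dehydrogenase metabolic activity.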 The format is functional.
The target in assay [13] is Melanin-concentrating hormone receptor 1 (Homo sapiens, UniProt Q99705). Kind of assay: Late-stage fluorescence-based counterscreen for antagonists of the G-protein coupled receptor 7 (GPR7): cell-based dose response assay to identify antagonists of the melanin-concentrating hormone receptor 1 (MCHR1). [Related pubchem assays (depositor defined):AID1861, AID1880, AID1952, AID2148, AID2251, AID2257, AID485339]. The format is functional.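 Also: stimulated with 30 nM MCH peptide agonist.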

Activity calls are given as the source filed them. Some results are limits rather than exact numbers.

Sequence of Melanin-concentrating hormone receptor 1 (Q99705 whole entry): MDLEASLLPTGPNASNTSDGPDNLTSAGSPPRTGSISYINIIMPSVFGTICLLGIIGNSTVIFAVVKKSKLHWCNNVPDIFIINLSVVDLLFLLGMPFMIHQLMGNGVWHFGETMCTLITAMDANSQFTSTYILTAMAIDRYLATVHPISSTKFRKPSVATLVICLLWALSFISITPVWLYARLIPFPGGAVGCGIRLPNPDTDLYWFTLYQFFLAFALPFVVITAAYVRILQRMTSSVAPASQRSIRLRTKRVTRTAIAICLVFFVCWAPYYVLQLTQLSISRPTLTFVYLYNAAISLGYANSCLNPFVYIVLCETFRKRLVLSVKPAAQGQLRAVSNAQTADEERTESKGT
Sequence of Acyl-homoserine lactone acylase PvdQ (Q9I194 24-193 limits assumed): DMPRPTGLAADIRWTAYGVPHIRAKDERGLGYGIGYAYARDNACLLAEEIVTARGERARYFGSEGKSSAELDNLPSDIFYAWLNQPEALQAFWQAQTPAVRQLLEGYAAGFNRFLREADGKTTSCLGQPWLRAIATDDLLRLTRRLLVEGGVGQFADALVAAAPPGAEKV
Sequence of Acyl-homoserine lactone acylase PvdQ (Q9I194 217-762 limits assumed): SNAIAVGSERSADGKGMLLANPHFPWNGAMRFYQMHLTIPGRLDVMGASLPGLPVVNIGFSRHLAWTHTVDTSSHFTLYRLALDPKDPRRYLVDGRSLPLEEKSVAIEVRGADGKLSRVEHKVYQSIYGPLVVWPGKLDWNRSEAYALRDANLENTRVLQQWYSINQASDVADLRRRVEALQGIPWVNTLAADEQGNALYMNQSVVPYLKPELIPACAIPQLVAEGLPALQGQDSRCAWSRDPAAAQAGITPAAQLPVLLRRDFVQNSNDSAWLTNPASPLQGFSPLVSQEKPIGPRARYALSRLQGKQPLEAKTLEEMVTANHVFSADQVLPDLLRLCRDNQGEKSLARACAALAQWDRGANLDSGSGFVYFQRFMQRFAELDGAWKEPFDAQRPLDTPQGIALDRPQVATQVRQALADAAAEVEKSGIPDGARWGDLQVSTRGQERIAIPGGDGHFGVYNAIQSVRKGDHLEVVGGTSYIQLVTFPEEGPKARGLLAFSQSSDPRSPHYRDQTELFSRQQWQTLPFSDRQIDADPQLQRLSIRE
Sequence of Tumor necrosis factor (P01375 whole entry, the tested form may be a part): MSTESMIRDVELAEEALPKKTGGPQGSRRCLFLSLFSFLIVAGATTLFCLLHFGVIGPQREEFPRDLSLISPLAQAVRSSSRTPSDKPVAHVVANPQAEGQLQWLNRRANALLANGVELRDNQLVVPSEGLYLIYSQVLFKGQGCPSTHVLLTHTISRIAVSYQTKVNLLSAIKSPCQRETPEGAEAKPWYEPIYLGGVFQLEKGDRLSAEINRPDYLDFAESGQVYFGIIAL
Sequence of DNA (cytosine-5)-methyltransferase 1 (P26358 whole entry): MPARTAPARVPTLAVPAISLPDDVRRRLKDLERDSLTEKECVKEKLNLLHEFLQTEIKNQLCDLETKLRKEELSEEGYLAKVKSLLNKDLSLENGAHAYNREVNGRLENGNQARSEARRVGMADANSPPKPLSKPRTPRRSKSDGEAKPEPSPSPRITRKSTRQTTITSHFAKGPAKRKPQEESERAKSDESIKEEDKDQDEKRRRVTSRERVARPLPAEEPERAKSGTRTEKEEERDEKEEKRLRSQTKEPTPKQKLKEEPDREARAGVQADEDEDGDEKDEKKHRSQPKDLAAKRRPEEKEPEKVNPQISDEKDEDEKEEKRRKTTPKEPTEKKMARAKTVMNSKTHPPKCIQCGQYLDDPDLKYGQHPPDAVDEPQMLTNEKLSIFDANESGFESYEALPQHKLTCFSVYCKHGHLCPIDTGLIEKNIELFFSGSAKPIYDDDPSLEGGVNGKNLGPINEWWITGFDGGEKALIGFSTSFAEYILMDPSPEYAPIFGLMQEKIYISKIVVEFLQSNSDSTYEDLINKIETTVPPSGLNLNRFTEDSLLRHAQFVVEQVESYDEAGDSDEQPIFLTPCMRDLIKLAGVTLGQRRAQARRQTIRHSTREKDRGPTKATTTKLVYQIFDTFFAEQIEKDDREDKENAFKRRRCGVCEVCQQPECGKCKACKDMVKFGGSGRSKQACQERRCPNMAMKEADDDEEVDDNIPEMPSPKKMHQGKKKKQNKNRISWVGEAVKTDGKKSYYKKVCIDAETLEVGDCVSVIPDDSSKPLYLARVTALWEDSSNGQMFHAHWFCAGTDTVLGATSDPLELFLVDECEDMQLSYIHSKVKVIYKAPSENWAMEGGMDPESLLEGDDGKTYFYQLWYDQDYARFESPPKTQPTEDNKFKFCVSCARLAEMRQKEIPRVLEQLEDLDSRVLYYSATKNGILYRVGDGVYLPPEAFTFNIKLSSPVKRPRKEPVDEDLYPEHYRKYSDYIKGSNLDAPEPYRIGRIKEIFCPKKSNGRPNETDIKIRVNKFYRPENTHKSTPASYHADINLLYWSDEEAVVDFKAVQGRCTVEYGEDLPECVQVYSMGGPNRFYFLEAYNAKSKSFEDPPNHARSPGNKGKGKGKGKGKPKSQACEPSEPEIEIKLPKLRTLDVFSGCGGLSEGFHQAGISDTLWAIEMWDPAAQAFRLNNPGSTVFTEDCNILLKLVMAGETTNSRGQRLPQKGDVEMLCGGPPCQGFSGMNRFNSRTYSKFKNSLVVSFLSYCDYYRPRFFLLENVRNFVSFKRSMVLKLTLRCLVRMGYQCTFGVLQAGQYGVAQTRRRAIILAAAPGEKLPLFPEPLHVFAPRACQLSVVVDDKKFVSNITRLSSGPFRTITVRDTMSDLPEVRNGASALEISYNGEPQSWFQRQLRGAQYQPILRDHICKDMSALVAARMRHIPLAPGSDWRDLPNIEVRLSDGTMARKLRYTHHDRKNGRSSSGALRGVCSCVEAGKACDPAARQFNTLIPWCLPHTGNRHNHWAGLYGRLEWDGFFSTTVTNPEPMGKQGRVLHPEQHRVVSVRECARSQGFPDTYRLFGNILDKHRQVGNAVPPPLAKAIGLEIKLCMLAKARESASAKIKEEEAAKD
Sequence of Cytochrome P450 3A4 (P08684 whole entry): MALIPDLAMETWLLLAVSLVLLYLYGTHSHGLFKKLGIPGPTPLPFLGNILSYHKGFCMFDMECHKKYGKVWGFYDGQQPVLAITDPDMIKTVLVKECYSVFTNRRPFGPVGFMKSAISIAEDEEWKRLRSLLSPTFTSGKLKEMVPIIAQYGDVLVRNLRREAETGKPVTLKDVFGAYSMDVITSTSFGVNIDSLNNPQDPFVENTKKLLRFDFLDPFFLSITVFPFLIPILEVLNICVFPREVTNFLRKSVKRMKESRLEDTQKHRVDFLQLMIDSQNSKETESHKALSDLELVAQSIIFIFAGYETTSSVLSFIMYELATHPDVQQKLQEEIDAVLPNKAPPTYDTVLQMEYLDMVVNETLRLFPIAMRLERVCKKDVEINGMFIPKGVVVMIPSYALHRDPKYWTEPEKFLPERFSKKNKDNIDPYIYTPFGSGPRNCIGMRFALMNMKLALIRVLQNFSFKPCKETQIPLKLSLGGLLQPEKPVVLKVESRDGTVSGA
Sequence of Eukaryotic translation initiation factor 4E (P63073 whole entry): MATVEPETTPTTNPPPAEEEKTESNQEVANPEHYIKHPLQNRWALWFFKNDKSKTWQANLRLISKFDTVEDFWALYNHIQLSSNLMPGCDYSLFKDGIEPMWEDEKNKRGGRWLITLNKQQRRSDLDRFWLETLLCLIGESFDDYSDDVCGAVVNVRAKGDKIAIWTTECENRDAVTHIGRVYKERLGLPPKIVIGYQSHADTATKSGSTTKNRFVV
Sequence of Cytochrome P450 2C9 (P11712 whole entry): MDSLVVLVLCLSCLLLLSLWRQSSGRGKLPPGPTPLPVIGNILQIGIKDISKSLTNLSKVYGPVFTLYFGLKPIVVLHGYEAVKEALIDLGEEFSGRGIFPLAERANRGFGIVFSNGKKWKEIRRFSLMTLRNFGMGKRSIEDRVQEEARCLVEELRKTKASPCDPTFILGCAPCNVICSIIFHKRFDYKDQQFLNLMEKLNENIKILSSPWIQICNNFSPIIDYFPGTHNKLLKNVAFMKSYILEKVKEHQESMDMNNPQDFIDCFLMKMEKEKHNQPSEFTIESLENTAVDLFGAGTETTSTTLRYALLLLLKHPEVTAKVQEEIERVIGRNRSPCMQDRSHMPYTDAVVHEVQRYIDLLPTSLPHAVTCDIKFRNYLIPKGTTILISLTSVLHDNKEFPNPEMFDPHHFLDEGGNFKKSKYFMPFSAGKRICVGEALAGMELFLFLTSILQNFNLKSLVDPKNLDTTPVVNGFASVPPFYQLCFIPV

Broadly, the IC50 is the concentration at which inhibition is half-maximal. Turning to `COCCn1c(SCC(=O)Nc2ncc(Cl)c(C)c2Cl)nc2ccccc21`, the IC50 at Bcl-2-like protein 10 was 90.6 µM (inactive).

As a reminder, the AC50 is the midpoint of the concentration-response curve, whichever way the signal moves. In the case of `CCC(C)(C)NC(=O)c1cc([N+](=O)[O-])ccc1N1CCCCC1`, the AC50 in [1] was 13.7 µM (active). A word on the EC50: it is the concentration that produces a half-maximal response. Take `Clc1ccc(CN2C3=NCCN3c3ccccc32)cc1`: the EC50 was > 50 µM (active) in assay [2] and 1.5 µM (active) in assay [3]. Regarding `CCCCCC(=O)c1cc(CC(C(=O)OC)C(=O)OC)cc2cc(OC)c(OC)cc12`, the AC50 was 3.98 µM (inconclusive) on Cytochrome P450 3A4 and 3.16 µM (inconclusive) at Cytochrome P450 2C9. In general, CC50 refers to the concentration giving 50% cytotoxicity. Regarding `COC(=O)C1=C(C)N(Cc2ccccc2)C(=O)N[C@H]1c1ccccc1`, in [4], the CC50 is 33.9 µM (active). In addition, the IC50 in the assay “cells” is 5.02 µM (active). On to `CCOC(=O)c1c(NC(=O)c2cccs2)sc2c1CC(C)(C)OC2`, for which the IC50 (on Tumor necrosis factor; in assay [5]; in assay [6]; with HEK293) was > 20 µM (inactive) in each case.

Consider `COc1ccccc1Nc1cc(C(=O)NCc2cccnc2)c2ccccc2n1`, for which the EC50 in assay [2] was > 50 µM (active).

Take `O=C(Cc1ccccc1)Nc1ccc2oc(-c3cccnc3)nc2c1`: at Estrogen receptor, the EC50 was 21.2 µM (active). For the molecule `O=C(Oc1c(Br)cc(C(=S)N2CCOCC2)cc1Br)c1ccc(Cl)cc1`, the IC50 in [7] was > 64 µM (inactive). Further, the AC50 at Cytochrome P450 1A2 was 17.8 µM (inconclusive). As for `O=C(c1cc2nc(-c3ccccc3)cc(-c3ccccc3)n2n1)N1CCC2(CC1)OCCO2`, the CC50 in assay [4] was 28.9 µM (active). Moreover, the EC50 was 24.2 µM (active) in assay [8], 12.9 µM (active) in assay [9] and 115 µM (active) in [10]. Further, the IC50 in “cells” is 3.6 µM (active). `Cc1cccc(OCC(=O)Nc2ccc(N3CCCC3)cc2)c1C`: the IC50 on Bcl-2-like protein 10 was 96.2 µM (inactive); in assay [11] it was > 99 µM (inactive).

Regarding `Cc1cccc(N(Cc2ccccc2)C(=O)C2CCN(C(=O)c3ccccc3C)CC2)c1`, the AC50 with HeLa was 135 µM (active).

On to `N#Cc1cn(Cc2ccccc2)c2ccccc12`, for which the AC50 in [1] is 45 µM (active). In the case of `CC(C(=O)O)N1C(=O)/C(=C/c2cccn2C)SC1=S` (stereo not given), the EC50 in assay [12] was > 100 µM (active). Regarding `COc1ccc(-c2cn3c(C)c(C(=O)Nc4ccncc4)sc3n2)cc1`, the EC50 at Estrogen receptor was 18.9 µM (active). `COc1ccc(Oc2c(Cl)cnn(-c3ccc4c(c3)CCCC4)c2=O)cc1`: the IC50 in assay [13] was 2.1 µM (active). On the same count and under the same terms, then `CC(C)c1ccc(-n2ncc(Cl)c(NCc3ccccc3)c2=O)cc1`, with 6.9 µM (active). With `NC(=S)N/N=C/c1ccc(-c2ccc([N+](=O)[O-])cc2)o1`, the AC50 in the assay with HeLa was 84.6 µM (active).
